This series in a line: gradient 5% acetonitrile 3 min, to 50% in 2 min, to 85% in 15 min, held 3 min, 100 µL/min. The conditions noted are these: column: Zorbax Extend-C18 2.1 x 50 mm; eluents: water / acetonitrile, 0.1% formic acid. In short, it runs like this: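 Data were gathered over 3 months by HPLC coupled to a quadrupole time-of-flight mass spectrometer, operated in positive and negative ionization mode. Mixtures of ~100 pure standards ran on a Zorbax Extend-C18 column (2.1 × 50 mm, 1.8 μm) at 100 μL/min, with water and acetonitrile each containing 0.1% formic acid and dead and dwell volumes of 40 μL and 900 μL. Retention time was read from adduct peaks picked by computer and checked manually.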
Turning to `CSc1ccc(-c2noc(Cc3nnc(-c4cc(F)cc(F)c4)o3)n2)cc1`, the RP-LC retention time is 1100 s.

The compound `CCn1c(=O)sc2cc(S(=O)(=O)N3CCC(C(=O)N(C)C4CCCCC4)CC3)ccc21` registered an RP-LC retention time of 958 s.

`C=Cc1ccc(CSc2nnc3c(S(=O)(=O)N4CCCC4)cccn23)cc1` displayed an RP-LC retention time of 884 s.

Consider `CCn1c(=O)c(C(=O)Nc2cccc(SC)c2)c(O)c2sccc21`, for which the RP-LC retention time was determined as 1290 s.

Turning to `Cc1ccc(CNC(=O)C2CCN(c3cncnc3N3CCCC3)CC2)cc1`, the RP-LC retention time turned out to be 662 s.

Compound `Cc1ccccc1C(=O)N1CCC2(CC1)NCc1ccccc1-n1ccnc12` registered an RP-LC retention time of 609 s.

For the compound `O=C(CCC1CCCN(C(=O)Nc2ccc(F)cc2)C1)NCc1ccc(Cl)cc1` (stereo not given), the RP-LC retention time was 856 s.

`CCc1nnc2c(=O)n(CC(=O)NCc3ccccc3)c3cccnc3n12` had an RP-LC retention time of 688 s.

`COc1ccc(C[C@H](C)NC[C@@H](O)c2ccc(O)c(NC=O)c2)cc1` showed an RP-LC retention time of 663 s.

`COc1cc(NC(=O)COc2cc(C)nc(N3CCCC3)n2)cc(OC)c1OC` came in with an RP-LC retention time of 602 s.

Consider `COc1ccc2c(c1)C1CC(C)(NC(=O)C1C(=O)c1ccccc1)O2` (stereo not given), for which the RP-LC retention time was 758 s.

`Cc1cc(NC(=O)c2c(F)cccc2Cl)n(-c2nc(-c3ccccc3)cs2)n1` displayed an RP-LC retention time of 1330 s.

For `Cc1cc2c(cc1S(=O)(=O)N1CCCC1C(=O)Nc1ccc(C(F)(F)F)cc1)OCC(=O)N2` (stereo not given), the RP-LC retention time was determined as 873 s.

Turning to `COc1ccc(OC)c(NC(=O)N(C)CCc2noc(COc3ccc(F)cc3)n2)c1`, the RP-LC retention time was 919 s.

Take `COc1cc2c(cc1OC)C1C(C(=O)Nc3ccc4c(c3)OCO4)c3ccccc3C(=O)N1CC2` (stereo not given): the RP-LC retention time turned out to be 779 s.

`COc1ccc(CCNC(=O)c2ccc(-n3nc(C)cc3C)nc2)cc1OC` came in with an RP-LC retention time of 758 s.

`O=C1C(N2CCN(S(=O)(=O)c3ccccc3F)CC2)CCN1Cc1ccccn1` (stereo not given) registered an RP-LC retention time of 571 s.

`CCOc1ccc(-n2nnc(C(=O)Nc3cccc(Cl)c3C)c2C)cc1`: the RP-LC retention time was found to be 1120 s.

`CC(C)CNC(=O)C1CCN(c2nc3ccsc3c(=O)n2Cc2ccc(F)cc2)CC1` returned an RP-LC retention time of 884 s.

For `CCOC(=O)N1CCC(N2CCCC(COc3ccccc3C(=O)N3CCCC3)C2)CC1` (stereo not given), the RP-LC retention time worked out at 612 s.

Regarding `Cc1noc2nc(C)n(CC(=O)Nc3ccc(F)cc3F)c(=O)c12`, the RP-LC retention time is 767 s.

As for `Cc1cc2c(N3CCCC(C(=O)NCc4ccccc4C(F)(F)F)C3)nccc2s1` (stereo not given), the RP-LC retention time stood at 738 s.

`CCc1ccc(CNC(=O)Cn2c(C)nc3onc(C)c3c2=O)cc1` displayed an RP-LC retention time of 821 s.

The compound `Cc1ccc(-c2noc(Cn3c(=O)n(Cc4ccc5c(c4)OCO5)c(=O)c4sccc43)n2)cc1C` gave an RP-LC retention time of 1180 s.

`CCOc1ccc(CNC(=O)c2cnc(N3CCN(C4CCCCC4)CC3)nc2N)cc1`: the RP-LC retention time worked out at 658 s.

Compound `O=C(Nc1ccc(F)cc1)Nc1nccn(-c2ccc(Br)cc2)c1=O` yielded an RP-LC retention time of 985 s.

`C=CCNC(=O)c1cn(-c2ccc(-c3nc(C4CC4)no3)cn2)cn1` had an RP-LC retention time of 788 s.

`CC1CCC(NC(=O)C2CCN(S(=O)(=O)c3ccc4c(c3)sc(=O)n4C(C)C)CC2)CC1` (stereo not given) returned an RP-LC retention time of 1020 s.

With `CCc1sc(NC(=O)c2cc3c([nH]c2=O)CCCC3=O)nc1-c1ccc(Cc2ccccc2)cc1`, the RP-LC retention time was 1140 s.

Regarding `CCOC(=O)c1sc(NC(=O)C2CCC2)nc1-c1ccccc1`, the RP-LC retention time is 1010 s.

In the case of `CCOC(=O)C(C(=O)Nc1ccccn1)C1CCCCC1` (stereo not given), the RP-LC retention time stood at 908 s.

For `Cc1ccccc1-c1noc(-c2cccnc2N2CCN(Cc3ccccc3)CC2)n1`, the RP-LC retention time was 803 s.

In turn, `COc1ccc(S(=O)(=O)Nc2ccc3c(c2)N(C(C)=O)CC3)c(C)c1` showed an RP-LC retention time of 722 s.

In turn, `CNC(=O)c1ccsc1NC(=O)c1cccc(C(F)(F)F)c1` gave an RP-LC retention time of 1160 s.

`CC1CCN(C(=O)C2c3ccccc3CCN2CC(=O)NCC2CCCCC2)CC1` (stereo not given) yielded an RP-LC retention time of 1070 s.

`Cn1c(CN2CCN(C(=O)NCc3ccco3)CC2)nc2cc(C(=O)N3CCCC3)ccc21` displayed an RP-LC retention time of 590 s.

In turn, `CCN(Cc1ccccc1)c1ccc(-c2noc(CN3CCOCC3)n2)cn1` registered an RP-LC retention time of 826 s.

`O=[N+]([O-])c1cccc(CSc2ccc3nnc(-c4cccs4)n3n2)c1` registered an RP-LC retention time of 789 s.

As to `CCOc1cccc2c(C)nc(NC3=NCN(CCOC)CN3)nc12`, the RP-LC retention time was determined as 643 s.

As for `COCC(=O)N1CCCCCCNC(=O)[C@@H]2CCCC[C@@H]21`, the RP-LC retention time was determined as 659 s.

`CCCN1C(=O)c2cc(S(=O)(=O)N3CCCCCC3)ccc2Oc2cccnc21` registered an RP-LC retention time of 1180 s.

With `CC1CCN(C(=O)c2nnc(-c3ccc(S(=O)(=O)N4CCC(C)CC4)cc3)o2)CC1`, the RP-LC retention time was found to be 1120 s.

On to `Cc1ccccc1CC(=O)Nc1ccc2c(c1)Sc1ncccc1C(=O)N2C`, for which the RP-LC retention time is 806 s.

The compound `CC(C)n1cnc2cc(CNC(=O)c3ccc(F)cc3F)ccc21` showed an RP-LC retention time of 623 s.

The compound `CCCN(C)c1nccn2c(=O)n(CC(=O)Nc3cccc(C)c3C)nc12` displayed an RP-LC retention time of 684 s.

Take `COc1cc(NC(=O)c2cn(-c3cc(N(C)C)ncn3)cn2)cc(OC)c1`: the RP-LC retention time worked out at 809 s.

`CCc1nn2c(CNS(=O)(=O)c3ccccc3F)c(-c3ccccc3)nc2s1` gave an RP-LC retention time of 907 s.

`Cc1nc(-c2cc(S(=O)(=O)N3CCC(C(=O)Nc4cccc(C#N)c4)CC3)c(C)s2)no1` yielded an RP-LC retention time of 949 s.

`CC(C)CNC(=O)C1CCN(c2nc3ccsc3c(=O)n2-c2ccccc2)CC1` came in with an RP-LC retention time of 786 s.

`O=C1c2cccc(OCC(=O)N3CCCc4ccccc43)c2CCN1Cc1cccnc1` returned an RP-LC retention time of 594 s.

Consider `O=C(Nc1ccc(Br)cc1)C1CCN(c2cc(N3CCCC3)ncn2)CC1`, for which the RP-LC retention time is 721 s.

Turning to `COc1cc(CN2CCC3(CCC(CN4CCOCC4)O3)CC2)ccc1OCC(C)C` (stereo not given), the RP-LC retention time was 598 s.

`CCCS(=O)(=O)N1CCC(c2noc(-c3cccnc3)n2)C1` (stereo not given) yielded an RP-LC retention time of 730 s.

The compound `Cc1ccc(S(=O)(=O)c2cnc(N3CCN(c4ccccc4Cl)CC3)nc2N)cc1` registered an RP-LC retention time of 1230 s.

Compound `Nc1nc(SCC(=O)NCC2CCCO2)n[nH]1` (stereo not given) returned an RP-LC retention time of 469 s.

In turn, `COc1ccc(-c2csc(SCc3ccc(C(=O)N4CCOCC4)o3)n2)cc1OC` displayed an RP-LC retention time of 783 s.

`COc1ccc(C2CC(=O)N(c3cccc(OC)c3)C(=O)C2)cc1` gave an RP-LC retention time of 860 s.

As to `CCc1ccc2c(c1)-c1ccccc1S(=O)(=O)N2CC(=O)N1CCN(CC)CC1`, the RP-LC retention time was 678 s.

Compound `CC(C)Cn1cc(CCNC(=O)Nc2ccc(Cl)cc2)c2cccnc21` registered an RP-LC retention time of 889 s.

In turn, `O=S(=O)(NCCc1noc(-c2ccccc2)n1)c1ccc(Cl)cc1` gave an RP-LC retention time of 980 s.

`Cc1cc(NCc2ccccn2)n2ncnc2n1`: the RP-LC retention time was 562 s.

In turn, `COc1ccc(-c2nnc(SCc3ccc(C#N)cc3)o2)cc1` gave an RP-LC retention time of 948 s.

`CNC(=O)c1noc([C@@H]2CC(F)(F)CN2Cc2ccc(C)o2)n1`: the RP-LC retention time worked out at 1070 s.

Regarding `O=C(c1nnn2c1COC(c1ccc(Cl)cc1)C2)N1CCSCC1` (stereo not given), the RP-LC retention time is 949 s.

For `Cc1nc(C)c(C(=O)N2CC(N(CC(C)C)C3CCN(C)CC3)C2)s1`, the RP-LC retention time worked out at 567 s.

`CN(C)CCNc1oc(COc2ccc(Cl)cc2)nc1C#N` showed an RP-LC retention time of 641 s.

Take `Cc1cc(C)n(CCC(=O)NCc2cccnc2Oc2ccccc2)n1`: the RP-LC retention time was 706 s.

For `CC(C)Cn1cc(CCNS(=O)(=O)c2cccc(Cl)c2)c2cccnc21`, the RP-LC retention time amounted to 985 s.

`Cc1ccc(NC(=O)N2CCC(N3CCN(Cc4ccccn4)C(=O)C3=O)CC2)cc1`: the RP-LC retention time is 604 s.

On to `O=C(CCNc1cnc2cnccn12)NCc1ccc(N2CCCCC2)cc1`, for which the RP-LC retention time came to 533 s.

Compound `COc1ccc(NC(=O)C2CCCN(c3ncnc4c3nc3n4CCCCC3)C2)cc1Cl` (stereo not given) showed an RP-LC retention time of 828 s.

`CC1(C(=O)NCc2ccc(Cl)cc2)Oc2cccnc2NC1=O` (stereo not given) came in with an RP-LC retention time of 725 s.

In turn, `CCOC(=O)C1=C(CN2CCN(c3ccccn3)CC2)NC(=O)NC1c1ccc(OC)cc1` (stereo not given) showed an RP-LC retention time of 612 s.

Take `O=C(COc1ccccc1F)Nc1nnc(-c2ccsc2)o1`: the RP-LC retention time turned out to be 701 s.

The compound `COc1ccc(NC(=O)C2CCCN(c3cnc4nccnc4c3)C2)c(C)c1` (stereo not given) yielded an RP-LC retention time of 693 s.

In turn, `C=CCN1C(=O)C(C)(C)COc2cc(NC(=O)c3cccc(OC)c3OC)ccc21` displayed an RP-LC retention time of 943 s.

With `Cc1ccc(NC(=O)N2C[C@@H](F)C[C@H]2C(=O)N2CCCCC2)cc1F`, the RP-LC retention time is 755 s.

For `Cc1ccc(-c2ccc3nn(Cc4cccc(Br)c4)c(=O)n3n2)cc1C`, the RP-LC retention time was determined as 1010 s.

Take `Cc1cc(NC(=O)CCc2nc(-c3ccc(N4CCCC4)cc3)no2)ccc1Br`: the RP-LC retention time worked out at 1230 s.

In the case of `COCCN1CN=C(Nc2nc(C)c3ccccc3n2)NC1`, the RP-LC retention time came out at 589 s.

The values above are taken from the METLIN SMRT retention time set (Domingo-Almenara et al. 2019).
